This is an account of results in patent US8765698B2, “Methods and products for reawakening retrocyclins” (priority 2010, dated 2014).

The test system of one data set is retrocyclin peptides. Put plainly: Immunostaining of aminoglycoside-treated TZM-bl cells with anti-retrocyclin antibody. It is filed as cell-based. The following applies: 10 μg/ml, 24 hr. An excerpt: The coverslips were then processed for immunofluorescence staining with anti-retrocyclin (rabbit anti-RC-101 antibody) or pre-immune serum as described above.
The test system of data set [1] is premature termination codon of retrocyclin cDNA. Put plainly: Aminoglycoside mediated read-through of termination codon, luciferase fusion construct in HOS-CD4-CCR5 cells. The settings on record: 10 μg/ml, 24 hr, luciferase normalized to renilla. Type of data set: cell-based, human. The method, then:
Wildtype and mutant retrocyclin cDNAs were subcloned into phCMV-luc-FSR vector to create unrescued RC-101 and rescued RC-101 C-terminal luciferase fusion constructs, and verified by sequencing. HOS-CD4-CCR5 cells were cultured in antibiotic free growth medium (D10^−) and co-transfected with 0.5 μg of unrescued or rescued (positive control) RC-101 plasmids along with 0.1 μg of phRL-CMV vector (transfection control containing renilla luciferase gene) using Effectene transfection reagent (Qiagen, Valencia, Calif.). The next day cells were treated for 24 hr with the appropriate aminoglycoside (40 μg/ml amikacin or 5 μg/ml gentamicin or 10 μg/ml tobramycin) or D10^− for control cells. Read-through was determined by measuring luciferase and renilla levels using a dual luciferase assay (Promega Corp., Madison, Wis.).

Data set [2] has as its system Cervicovaginal tissues (EpiVaginal). The data set can be described thus: MTT assay on organotypic cervicovaginal tissue. It is filed as cell-based, human. The settings on record: one tissue, data not shown. The method, then: (§1) Cervicovaginal tissues were treated topically with 100 μl of PBS (control; n=4) or with 10 μg/ml of tobramycin (n=8) for 24 hr. Viability was assessed on control and tobramycin-treated tissue (n=1) using MTT assay kit (MatTek Corp., Ashland, Mass.). Cytotoxicity was measured by quantifying lactate dehydrogenase (LDH) activity in the underlying medium collected 24 hr after treatment with PBS or tobramycin by using CytoTox96 non-radioactive cytotoxicity assay kit (Promega Corp., Madison, Wis.).

The test system is the same in data set [3]. The data set can be described thus: LDH cytotoxicity assay on organotypic cervicovaginal tissue. It is filed as cell-based, human. The settings on record: 10 μg/ml, 24 hr. The method, then: as §1
A further data set deals with retrocyclin polypeptides. The data set can be described thus: Retrocyclin expression in cervicovaginal tissues, RP-HPLC, immuno-dotblot and immunostaining. Type of data set: cell-based, human.
In a further data set the test system is HIV-1 BaL. The data set can be described thus: Luciferase-based infection assay to determine anti-HIV-1 activity. Type of data set: cell-based. The following applies: for HIV-1 infection of aminoglycoside-treated TZM-bl cells: HIV-1 BaL, 24 hr, compared to untreated cells.

Description for HIV-1 BaL: Treatments were then removed and the infection was quantified by measuring luciferase using Bright-Glo reagents (Promega, Madison, Wis.) in an LMax luminometer (Molecular Devices, Sunnyvale, Calif.). Cytotoxicity and metabolic activity of cells were verified by a tetrazolium-based MTT assay (R& D systems, Minneapolis, Minn.) performed on identically treated cells.
For antibody-mediated neutralization experiments, TZM-bl cells (4000 cells/well; 96 well plate) were cultured in D10^− medium and treated with vehicle (PBS) or 10 μg/ml of tobramycin for 24 hr. The next day, cells were treated with either rabbit preimmune or anti-retrocyclin serum diluted 1:10 in D10^− medium containing tobramycin or RC-100 (2.5 μg/ml). Two hours later the cells were infected with HIV-1 BaL (p24 of 5 ng/ml) at 37° C. for 24 hr. Viral infection was quantified as described above.

Take `NC[C@H]1O[C@H](O[C@H]2[C@H](O)[C@@H](O[C@H]3O[C@H](CO)[C@@H](O)[C@H](N)[C@H]3O)[C@H](N)C[C@@H]2N)[C@H](N)C[C@@H]1O` [tobramycin]: in the data set with retrocyclin peptides, the “anti-retrocyclin immunostaining of TZM-bl cells” value is “brightly stained cells”. The increase in read-through in data set [1] stood at 26 fold. Besides, in data set [2], the “metabolic activity of tissue (MTT assay)” value is “did not affect the metabolic activity adversely”. The “tissue cytotoxicity (LDH activity in underlying medium)” value in data set [3] was “not cytotoxic”. In addition, the “amount of retrocyclin polypeptides expressed in treated cervicovaginal tissues” value in the data set with retrocyclin polypeptides (10 μg/ml tobramycin, estimated by densitometry of immuno-dotblot) was “approximately 1.6 μg/tissue”. In addition, the “anti-retrocyclin immunohistochemical staining of cervicovaginal tissue” value in the data set with retrocyclin polypeptides (applied apically, 24 hr) is recorded as “brightly stained cells”. Besides, the “HIV-1 infection of aminoglycoside-treated TZM-bl cells” value in the data set on HIV-1 BaL is given as “inhibited HIV-1 infection”. Also, the “infection, preimmune serum compared to anti-retrocyclin antibodies” value with HIV-1 BaL (TZM-bl cells, tobramycin 10 μg/ml for 24 hr, then serum, HIV-1) is recorded as “modest yet significant reduction in infection”.
As to gentamicin, the “HIV-1 infection of aminoglycoside-treated TZM-bl cells” value in the data set on HIV-1 BaL is recorded as “inhibited HIV-1 infection”.
